Measured values as given in US12564568B2, “PKC pathway in Parkinson's Disease” (CEDARS-SINAI MEDICAL CENTER, priority 2018, dated 2026).
“Also recorded” adds a separate entry of the source.

How the values were obtained:
[1] = In vitro blood plasma binding, mini pig; assay type: in vitro ADME
Text: (§1) This may complicate IV delivery.

DaN cultures = experiment: LDH on drug treatment of DaN cultures; assay type: cell-based, human
Text: It is likely that the toxicity of PEP is more specific to highly proliferative cells whereas the Inventors' differentiated neurons are largely post mitotoic.

α-synuclein = α-synuclein protein level in day 30 iPSC-derived mDA (DaN) cultures after drug treatment (western blot, immunostaining); assay type: cell-based, human; settings: in vitro, single 24-hour dose
[2] = IV bolus dose study, respiratory effects in rat; assay type: in vivo; settings: doses up to 10 ug/kg
Text: In multiple IV bolus dose studies, the following was observed.

[3] = Dose ranging study in mini-pig; assay type: in vivo; settings: pigs
Procedure: (§2) For dose ranging studies in rat and mini-pig. Repeated doses up to 15 ug/kg/day for 7 days were tolerated in rats, 5 ug/kg in pigs

[4] = Repeat dose tox study in mini-pigs; assay type: in vivo, mini-pig; settings: 5 ug/kg dose IV approximately 1x/week, intake recovered afterwards
Procedure: In a repeat dose tox study in rats—animals were given up to 10 ug/kg/day for 7 days by IV tail vein injection. […] In a repeat dose tox study in mini-pigs—animals were given up to 5 ug/kg/day IV approximately 1×/week.

[5] = PK profile in mice after IV tail vein injection; assay type: in vivo, mouse; settings: 10 and 50 ug/kg IV tail vein
Procedure: In a study to determine PK profile of PEP in mice—10 and 50 ug/kg were administered by IV tail vein injection. […] Again potentially problematic for IV delivery.

[6] = test system: tyrosine hydroxylase (TH); assay type: cell-based, human
Procedure: iPSC maintenance, mDA neuron differentiation and drug treatments: iPSCs were maintained in E8 media on Matrigel and passaged every 5 days at split ratios from 1:6 to 1:12 as needed using Versene. Only iPSCs between passage 17 and passage 35 were used in this study. For differentiation, iPSCs were grown to ˜80% confluency. Cells were singularized with Accutase (Millipore/Sigma #SCR005) (5 minutes at 37° C.) and plated onto Matrigel-coated 6-well plates (BD Biosciences) at 200K cells per cm^2 (for a fully confluent monolayer) in E8 media with 5 μM Y27632 (StemGent). 24 hours after plating, media was changed to Stage 1 (50% DMEM/F12, 50% Neurobasal, N2, B27-Vitamin A, LDN-193189 (LDN), SB431542 (SB)). Stage 1 media was changed each day (3 mL per well) for 3 days. Media was next switched to Stage 2 (50% DMEM/F12, 50% Neurobasal, N2, B27-Vitamin A, LDN, SB, Purmorphamine (PMN), CHIR99021 (CHIR), Sonic hedgehog (SHH), Fibroblast Growth Factor 8 (FGF8)). Stage 2 media was changed each day (3 mL per well) for 4 days. Media was then switched to Stage 3 (50% DMEM/F12, 50% Neurobasal, N2, B27-Vitamin A, LDN, CHIR, all-trans-Retinoic acid (ATRA)). Stage 3 media was changed each day (3 mL per well) for 4 days. Finally, media was switched to Stage 4 (50% DMEM/F12, 50% Neurobasal, N2, B27+Vitamin A, Brain-Derived Neurotrophic Factor (BDNF), Glial Cell Line-Derived Neurotrophic Factor (GDNF), dibutyryl cyclic-AMP sodium salt (dbCAMP), L-Ascorbic Acid (AA), γ-Secretase inhibitor (DAPT), CHIR, Transforming Growth Factor beta-3 (TGF β3)). Stage 4 media was changed each day (3 mL per well) for 3 days. On day 15, cells were dissociated to single cells using Accutase (20 mins at 37° C.) and gently lifted. Dissociated cells were resuspended in Maturation Medium (50% DMEM/F12, 50% Neurobasal, N2, B27+Vitamin A, BDNF, GDNF, dbCAMP, AA, DAPT, TGF3) plus 5 μM Y27632 and reseeded onto Matrigel-coated 6-well plates at 200 k/cm^2 in 1 mL total volume or onto Matrigel-coated L-glass coverslips in a 24-well plate at 200 k/50 μL drop. Cells were allowed to attach for 45 mins at 37° C. and Maturation Medium was then added to final volumes of 3 mL per well for 6-well plates or 1.5 mL per well for 24-well plates with coverslips. A full medium change was performed 48-hours post-seeding and medium was changed every 3 days until day 30. For drug treatments, cells at day-27 were fed with Maturation Medium containing the indicated drug and cells were analyzed at day 30.
Analytical flow cytometry: Day-30 cultures in 6-well plates were washed once in phosphate buffered saline (PBS) then 1 mL Accutase was added to each well and incubated for 25 mins at 37° C. or until the cells fully lifted. Cells were washed with an additional 2 mL Maturation Medium and very gently triturated until large clumps were no longer visible at which point cells were pelleted by centrifugation (1500 RPM for 3 mins). Cells were gently resuspended in 4% paraformaldehyde (PFA) in PBS and allowed to fix for 10-15 mins at room temperature. Fixed single cells were permeabilized using 1% Trition X-100 (Sigma-Aldrich) and stained using primary antibodies against TH (1:500 Immunostar, 22941), α-synuclein (1:1000 Abcam, ab138501), and MAP2ab (1:1000 Sigma-Aldrich, M1406), or isotype controls at same dilution (Cell Signaling IgG Isotype Control rabbit #3900S and mouse #5415S). Secondary antibodies (Alexa Fluor 488 and 594 donkey anti-mouse and donkey anti-rabbit, Invitrogen) were used at 1:500. Stained samples were quantified on an LSR Fortessa cytometer using BD FACSDiva software.
Immunocytochemistry and imaging: mDA neuron cultures were plated on L-glass coverslips and grown as above. Day 30 neurons were fixed in 4% PFA at room temperature for 10-15 mins. […]

[7] = In vitro blood plasma binding, rat; assay type: in vitro ADME
Text: as §1

LC3 = LC3 level in day 30 DaNs after PEP treatment (western blot); assay type: cell-based, human; settings: PD cells
[8] = Dose ranging study in rat; assay type: in vivo; settings: rats, for 7 days
Procedure: as §2

TH = experiment: Injection into the ventricles of WT mice, TH in striatum; assay type: in vivo, mouse; settings: 0.3, 3, and 30 uM injected into ventricles of WT mice; 1 and 5 days post injection
Procedure: In vivo, PEP stimulates synuclein degradation. Dosage studies of 0.3, 3, and 30 uM PEP was injected into the ventricles of WT mice.

[9] = In vitro blood plasma binding, rabbit; assay type: in vitro ADME
Text: as §1

Question: Which results are given for `C/C=C(/C)C(=O)O[C@H]1C(C)=C[C@]23C(=O)[C@@H](C=C(CO)[C@@H](O)[C@]12O)[C@H]1[C@@H](C[C@H]3C)C1(C)C` [PEP005, ingenol-3-angelate]?
Answer: plasma binding [1]: highly efficient plasma binding; LDH on drug treatment (DaN cultures): nor do the Inventors see an increase; duration for which synuclein levels remained depressed (α-synuclein): 168 h; respiratory effects [2]: no biologically relevant responses; tolerated repeated dose [3]: ≤ 5 µg/kg; food intake [4]: lower food intake the following day; serum concentration ([5]; 1 hour after): below detectable limits; clearance ([5]; >blood flow through the liver): very high clearance; TH by immunostaining ([6]; PEP005-treated mDA cultures): enhanced; amount of TH enzyme present ([6]; both control and PD cultures, 3 days treatment from day 27, listed as PEP): increase; number of TH neurons (flow cytometry) ([6]; d30 mDA cultures, PEP005 72 hrs): did not result in an increased number; level of TH expression in neurons (flow cytometry) ([6]; d30 mDA cultures, PEP005 72 hrs, relative to untreated): significantly higher levels; plasma binding [7]: highly efficient plasma binding; p-PKCα signal (western blot) (p-PKCα; control and PD cultures / all iPSC lines, 1 μM PEP005 for 3 days): completely ablate; also recorded: completely ablating; also recorded: clearly ablated; p-PKCα expression, dose response (p-PKCα; dose response study, 172iPD mDA culture): clear dose-response relationship; p-PKCα levels at low PEP005 doses (p-PKCα; dose response study, low doses): did not alter; time post dose at which pPKCα levels were still depressed (p-PKCα; in vitro, single 24-hour dose): ≥ 240 hours; time until p-PKCα is degraded in response to drug treatment (p-PKCα; time-course, control and PD cultures): ≤ 24 h; LC3 response (LC3): neither LAMP1 nor LC3 respond; tolerated repeated dose [8]: up to 15 ug/kg/day; TH in mouse striatum (TH): increase; plasma binding [9]: highly efficient plasma binding
